The values below come from ChEMBL document CHEMBL1201862, “PubChem BioAssay data set” (2004).

Calls of active or inactive are those of the source. Some results are limits rather than exact numbers.

As usually defined, the IC50 is the concentration needed to halve the response being measured. One may read the AC50 as the midpoint of the concentration-response curve, whichever way the signal moves.

A short description of test [1]: cytotoxicity in HEK-293T cells, dose response, cytotoxicity control for TCR NF-kB inhibitor project, luminescence, T-cell screen hits (AID 489026).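 Further: cells exposed to compound about 14 hours before the viability readout.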 The test is classed as functional, cell-based.
The test system of the next test is Jurkat. As to the kind of experiment: SAR Analysis of small molecule inhibitors of T-cell specific antigen receptor-induced NF-kB activation in a Jurkat cell line using a luminescence assay - Set 2. [Related pubchem assays (depositor defined):AID435003, AID435012, AID465]. The test is classed as functional, cell-based. The settings on record: Homo sapiens.
Test [2] is described as follows: Shn3 3'UTR reporter inhibitors, dose response, cell-based, Clone20 osteoblasts, firefly luciferase, cherry-picked (AID 624132).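 Further: firefly luciferase luminescence from reporter carrying the Shn3 3'UTR in osteoblasts.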 The test is classed as functional.
The next test relates to HEK293. Description: HEK cell cytotoxicity by LDH release, dose response, cytotoxicity control for IDE activator project, fluorescence, HEK cells (AID 588440).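 Further: cytotoxicity by LDH release measuring loss of membrane integrity.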 The test is classed as functional, cell-based. The settings on record: Homo sapiens. In general terms: LDH in the medium is a marker of cell lysis.
For another test, the target named is ORF 73 (Human herpesvirus 8, UniProt O40947). As to the kind of experiment: inhibitors of C-LANA binding to LBS DNA, dose response, biochemical, fluorescence polarization, cherry-picked samples (AID 504725).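 Further: fluorescence polarization of a labeled DNA duplex reporting LANA DNA binding; potency is for inhibitors that block LANA binding to the DNA.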 The arrangement: species or system Human gammaherpesvirus 8. (In general: In fluorescence polarisation assays a small probe gives low polarisation when free and higher when bound to something large.)
Sequence of ORF 73 (O40947 whole entry): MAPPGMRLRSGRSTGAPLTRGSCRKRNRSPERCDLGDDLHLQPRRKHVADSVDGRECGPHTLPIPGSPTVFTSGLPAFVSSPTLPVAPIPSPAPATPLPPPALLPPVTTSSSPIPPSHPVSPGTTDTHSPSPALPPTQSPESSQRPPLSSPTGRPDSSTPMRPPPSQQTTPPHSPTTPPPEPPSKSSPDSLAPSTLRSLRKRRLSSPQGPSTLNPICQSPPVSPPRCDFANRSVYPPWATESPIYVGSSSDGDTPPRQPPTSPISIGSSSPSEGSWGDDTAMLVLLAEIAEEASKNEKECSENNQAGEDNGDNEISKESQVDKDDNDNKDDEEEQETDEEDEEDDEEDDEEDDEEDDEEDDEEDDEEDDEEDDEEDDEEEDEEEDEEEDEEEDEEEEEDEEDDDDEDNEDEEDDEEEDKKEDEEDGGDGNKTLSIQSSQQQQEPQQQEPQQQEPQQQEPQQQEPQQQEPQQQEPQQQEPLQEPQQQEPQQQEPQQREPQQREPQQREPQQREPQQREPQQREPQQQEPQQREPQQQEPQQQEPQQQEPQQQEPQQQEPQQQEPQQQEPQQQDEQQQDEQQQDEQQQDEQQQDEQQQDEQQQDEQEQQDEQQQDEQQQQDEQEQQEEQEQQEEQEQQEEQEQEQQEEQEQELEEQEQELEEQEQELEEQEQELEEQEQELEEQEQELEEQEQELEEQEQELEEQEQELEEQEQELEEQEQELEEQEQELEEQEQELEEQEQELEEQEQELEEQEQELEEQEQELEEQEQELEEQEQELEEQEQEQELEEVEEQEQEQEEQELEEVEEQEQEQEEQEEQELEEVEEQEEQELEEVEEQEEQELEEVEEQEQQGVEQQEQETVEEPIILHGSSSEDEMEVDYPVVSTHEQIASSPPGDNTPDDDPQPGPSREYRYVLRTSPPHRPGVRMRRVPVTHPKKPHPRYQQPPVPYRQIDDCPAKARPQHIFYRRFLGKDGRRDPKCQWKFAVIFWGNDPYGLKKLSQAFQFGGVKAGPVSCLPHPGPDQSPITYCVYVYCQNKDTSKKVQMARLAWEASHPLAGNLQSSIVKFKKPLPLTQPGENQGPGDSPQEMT

The target in test [3] is Tyrosyl-DNA phosphodiesterase 2 (Homo sapiens, UniProt O95551). Description: human TDP2 enzyme inhibitors, dose response, biochemical, epi absorbance, IC50 (AID 743297).
Sequence of Tyrosyl-DNA phosphodiesterase 2 (O95551 whole entry): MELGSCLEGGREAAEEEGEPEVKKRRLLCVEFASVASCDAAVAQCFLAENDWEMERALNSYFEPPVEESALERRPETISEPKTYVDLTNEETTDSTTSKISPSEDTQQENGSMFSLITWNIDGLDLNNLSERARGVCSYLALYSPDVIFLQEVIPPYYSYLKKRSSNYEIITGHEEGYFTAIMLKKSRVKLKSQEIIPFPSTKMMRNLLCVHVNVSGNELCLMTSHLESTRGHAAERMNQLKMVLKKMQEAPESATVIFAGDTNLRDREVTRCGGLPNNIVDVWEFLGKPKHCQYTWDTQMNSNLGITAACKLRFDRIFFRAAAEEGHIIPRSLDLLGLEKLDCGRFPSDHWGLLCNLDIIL
Test [4] has as its target T1, Apoptotic protease-activating factor 1 (Homo sapiens, UniProt O14727).
T1 sequence (O14727 whole entry): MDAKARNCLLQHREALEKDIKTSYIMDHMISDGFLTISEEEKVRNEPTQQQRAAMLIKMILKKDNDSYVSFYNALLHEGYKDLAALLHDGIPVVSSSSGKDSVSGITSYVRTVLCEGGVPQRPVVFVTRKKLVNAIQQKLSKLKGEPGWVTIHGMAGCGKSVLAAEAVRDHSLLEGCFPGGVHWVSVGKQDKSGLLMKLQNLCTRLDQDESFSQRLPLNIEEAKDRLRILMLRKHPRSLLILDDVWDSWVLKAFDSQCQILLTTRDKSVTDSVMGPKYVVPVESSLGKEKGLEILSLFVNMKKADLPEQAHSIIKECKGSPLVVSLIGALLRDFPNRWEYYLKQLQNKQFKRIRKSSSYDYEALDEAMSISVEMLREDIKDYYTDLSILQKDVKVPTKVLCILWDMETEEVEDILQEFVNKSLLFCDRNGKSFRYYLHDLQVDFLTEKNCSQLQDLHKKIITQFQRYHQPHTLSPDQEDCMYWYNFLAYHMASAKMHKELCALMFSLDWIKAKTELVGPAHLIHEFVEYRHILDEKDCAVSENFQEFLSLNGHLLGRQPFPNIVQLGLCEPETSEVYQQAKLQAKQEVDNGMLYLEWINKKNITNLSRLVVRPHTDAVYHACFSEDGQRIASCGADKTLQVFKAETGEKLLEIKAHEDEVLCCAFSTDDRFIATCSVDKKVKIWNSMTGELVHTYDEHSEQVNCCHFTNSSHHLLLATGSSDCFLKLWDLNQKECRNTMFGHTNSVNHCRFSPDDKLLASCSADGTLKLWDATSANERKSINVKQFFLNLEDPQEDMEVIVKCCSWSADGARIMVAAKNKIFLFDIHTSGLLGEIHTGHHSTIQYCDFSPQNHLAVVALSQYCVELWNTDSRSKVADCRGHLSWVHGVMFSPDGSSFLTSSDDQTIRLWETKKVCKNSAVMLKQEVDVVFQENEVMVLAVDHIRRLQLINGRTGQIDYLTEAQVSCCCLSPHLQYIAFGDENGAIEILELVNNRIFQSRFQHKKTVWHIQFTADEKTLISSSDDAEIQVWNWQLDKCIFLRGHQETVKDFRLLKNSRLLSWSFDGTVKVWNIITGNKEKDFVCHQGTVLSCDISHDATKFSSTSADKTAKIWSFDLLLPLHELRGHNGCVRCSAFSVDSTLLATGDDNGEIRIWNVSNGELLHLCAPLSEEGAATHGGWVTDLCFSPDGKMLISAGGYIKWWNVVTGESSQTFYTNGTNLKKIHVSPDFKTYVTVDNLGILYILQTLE
It counts as functional.

In the next test the target is T2, Caspase-6 (Homo sapiens, UniProt P55212).
T2 sequence (P55212 whole entry): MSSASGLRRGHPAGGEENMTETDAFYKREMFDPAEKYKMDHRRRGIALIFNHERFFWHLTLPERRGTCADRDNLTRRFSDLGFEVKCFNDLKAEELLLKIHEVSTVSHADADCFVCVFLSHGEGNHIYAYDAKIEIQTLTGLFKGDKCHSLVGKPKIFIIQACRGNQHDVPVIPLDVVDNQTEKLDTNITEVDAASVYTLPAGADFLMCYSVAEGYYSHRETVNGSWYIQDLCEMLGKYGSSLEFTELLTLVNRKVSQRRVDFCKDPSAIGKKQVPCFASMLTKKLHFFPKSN
Description: human caspase-6 inhibitors, dose response, biochemical, VEID-R110 fluorescence, cherry-pick (AID 720632).

Test [5] addresses T3, Hexokinase HKDC1 (Homo sapiens, UniProt Q2TB90).
T3 sequence (Q2TB90 whole entry): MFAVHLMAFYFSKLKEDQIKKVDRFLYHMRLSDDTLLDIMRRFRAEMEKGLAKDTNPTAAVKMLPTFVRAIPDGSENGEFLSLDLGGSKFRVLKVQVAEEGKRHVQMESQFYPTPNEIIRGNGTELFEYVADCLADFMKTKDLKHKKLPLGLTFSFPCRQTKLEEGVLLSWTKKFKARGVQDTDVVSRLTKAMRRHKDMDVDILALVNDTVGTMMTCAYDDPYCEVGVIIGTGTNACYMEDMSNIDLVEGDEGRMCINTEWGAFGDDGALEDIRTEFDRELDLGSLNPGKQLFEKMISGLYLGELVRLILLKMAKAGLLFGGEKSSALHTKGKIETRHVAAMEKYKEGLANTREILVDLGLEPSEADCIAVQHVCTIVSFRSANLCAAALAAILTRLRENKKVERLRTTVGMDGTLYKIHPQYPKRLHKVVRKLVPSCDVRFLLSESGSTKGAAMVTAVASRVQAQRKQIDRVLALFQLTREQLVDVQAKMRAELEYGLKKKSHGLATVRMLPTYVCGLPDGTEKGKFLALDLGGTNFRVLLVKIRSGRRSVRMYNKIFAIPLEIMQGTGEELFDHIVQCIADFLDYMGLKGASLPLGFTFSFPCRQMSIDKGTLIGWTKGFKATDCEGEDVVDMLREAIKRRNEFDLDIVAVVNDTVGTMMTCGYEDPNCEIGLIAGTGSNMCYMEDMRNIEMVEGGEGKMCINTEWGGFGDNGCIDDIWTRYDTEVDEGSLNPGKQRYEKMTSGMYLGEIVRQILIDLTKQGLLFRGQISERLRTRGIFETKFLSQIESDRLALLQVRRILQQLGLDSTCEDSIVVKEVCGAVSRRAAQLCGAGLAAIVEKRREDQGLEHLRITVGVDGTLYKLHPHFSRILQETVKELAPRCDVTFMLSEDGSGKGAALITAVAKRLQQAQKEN
Description: HKDC1 hexokinase inhibitors, dose response, biochemical, W721R variant (AID 504729). The test is classed as functional.

In test [6] the target is T3, Hexokinase HKDC1. Description: HKDC1 hexokinase inhibitors, SAR follow-up, biochemical, set 2 (AID 588355). It counts as functional.

Take `CCCCC(=O)NC(c1ccc(Cl)cc1)c1ccc2cccnc2c1O` (stereo not given): the IC50 in [1] is > 80 µM (inactive); in the test with Jurkat, 5.28 µM (active). Moreover, the AC50 in [2] is 0.772 µM (active).
`COc1ccc2noc3c2c1C(=O)c1ccccc1-3`: the IC50 is > 89.2 µM (inactive) with HEK293, 65.7 µM (inactive) in test [3] and 42.5 µM (active) in test [4]. Also, the AC50 at ORF 73 was 0.228 µM (active).
For the compound `CCc1ccc2c(c1)C(NC(C)=O)C(=O)N2CCN1CCOCC1` (stereo not given), the AC50 on Caspase-6 is 11.9 µM (active). In addition, the results for the IC50 on Hexokinase HKDC1 [5] and on Hexokinase HKDC1 [6] were 6.27 µM (active) and 7.56 µM (active), respectively.
